Experimental data reported in patent US20260062412A1, “NITROGEN-CONTAINING HETEROCYCLIC COMPOUND HAVING MYT1 INHIBITORY ACTIVITY” (CHUGAI SEIYAKU KABUSHIKI KAISHA, priority 2023, published 2026).
Counter-ions that a name gives are not always drawn.

target: MYT1 protein (Homo sapiens (Human), UniProt Q99640); test: Test for binding to ATP binding site of MYT1 (Kinase Tracer 178 / Eu-Anti-GST antibody TR-FRET); details: ATP binding site of MYT1, 30 minutes at room temperature
Sequence (Q99640 whole entry): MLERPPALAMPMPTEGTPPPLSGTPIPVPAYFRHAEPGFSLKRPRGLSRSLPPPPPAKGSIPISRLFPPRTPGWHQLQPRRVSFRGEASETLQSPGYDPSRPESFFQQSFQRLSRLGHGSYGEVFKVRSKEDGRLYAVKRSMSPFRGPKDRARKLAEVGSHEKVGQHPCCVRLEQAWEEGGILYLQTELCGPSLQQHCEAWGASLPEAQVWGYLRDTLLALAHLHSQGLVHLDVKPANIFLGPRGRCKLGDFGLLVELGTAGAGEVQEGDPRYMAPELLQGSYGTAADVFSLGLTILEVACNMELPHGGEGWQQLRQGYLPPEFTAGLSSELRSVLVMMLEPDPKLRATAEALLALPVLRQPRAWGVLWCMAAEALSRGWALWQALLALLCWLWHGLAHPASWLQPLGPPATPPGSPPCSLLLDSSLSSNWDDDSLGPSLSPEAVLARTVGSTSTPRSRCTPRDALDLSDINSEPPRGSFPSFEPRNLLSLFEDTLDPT

Q: Which IC50 does the source give for `Nc1c(-c2ccc(F)c3[nH]ncc23)c2cc(N3CCC(N4CCCC4)CC3)c3ncccc3c2[nH]c1=O` [Compound C119, 3-Amino-4-(7-fluoro-1H-indazol-4-yl)-6-(4-pyrrolidin-1-ylpiperidin-1-yl)-1H-1,7-phenanthrolin-2-one] here?
A: 2.2 nM

Q: With `Nc1c(-c2ccc(F)c3[nH]ncc23)c2cc(N3CCC4(COC4)C3)c3ncccc3c2[nH]c1=O` [Compound C120, 3-Amino-4-(7-fluoro-1H-indazol-4-yl)-6-(2-oxa-7-azaspiro[3.4]octan-7-yl)-1H-1,7-one] as the molecule, how does the IC50 read?
A: 2.9 nM

Q: With `Nc1c(-c2ccc(F)c3[nH]ncc23)c2cc(N3CCC3)c3ncccc3c2[nH]c1=O` [Compound C121, 3-Amino-6-(azetidin-1-yl)-4-(7-fluoro-1H-indazol-4-yl)-1H-1,7-phenanthrolin-2-one] as the molecule, how does the IC50 read?
A: 3 nM

Q: How did the IC50 turn out when `Nc1c(-c2ccc(F)c3[nH]ncc23)c2cc(N3CCOCC3)c3ncccc3c2[nH]c1=O` [Compound C122, 3-Amino-4-(7-fluoro-1H-indazol-4-yl)-6-morpholin-4-yl-1H-1,7-phenanthrolin-2-one 2,2,2-trifluoroacetate] was run?
A: 4.5 nM

Q: Which IC50 does the source give for `Nc1c(-c2ccc(F)c3[nH]ncc23)c2cc(N3CC(F)(F)C3)c3ncccc3c2[nH]c1=O` [Compound C123, 3-Amino-6-(3,3-difluoroazetidin-1-yl)-4-(7-fluoro-1H-indazol-4-yl)-1H-1,7-phenanthrolin-2-one] here?
A: 3.4 nM

Q: How did the IC50 turn out when `Nc1c(-c2ccc(F)c3[nH]ncc23)c2cc(N3CCS(=O)(=O)CC3)c3ncccc3c2[nH]c1=O` [Compound C124, 3-Amino-6-(1,1-dioxo-1,4-thiazinan-4-yl)-4-(7-fluoro-1H-indazol-4-yl)-1H-1,7-phenanthrolin-2-one] was run?
A: 3.4 nM

Q: How did the IC50 turn out when `Nc1c(-c2ccc(F)c3[nH]ncc23)c2cc(N3CCCCC3)c3ncccc3c2[nH]c1=O` [Compound C125, 3-Amino-4-(7-fluoro-1H-indazol-4-yl)-6-piperidin-1-yl-1H-1,7-phenanthrolin-2-one] was run?
A: 5.9 nM

Q: With `Nc1c(-c2ccc(F)c3[nH]ncc23)c2cc(N3CCC(F)(F)CC3)c3ncccc3c2[nH]c1=O` [Compound C126, 3-Amino-6-(4,4-difluoropiperidin-1-yl)-4-(7-fluoro-1H-indazol-4-yl)-1H-1,7-phenanthrolin-2-one] as the molecule, how does the IC50 read?
A: 4.7 nM

Q: With `CS(=O)(=O)Nc1cc2c(-c3ccc(F)c4[nH]ncc34)c(N)c(=O)[nH]c2c2cccnc12` [Compound C127, N-[3-Amino-4-(7-fluoro-1H-indazol-4-yl)-2-oxo-1H-1,7-phenanthrolin-6-yl]methanesulfonamide] as the molecule, how does the IC50 read?
A: 1.5 nM

Q: How did the IC50 turn out when `Nc1c(-c2ccc(F)c3[nH]ncc23)c2cc(N3CC4CC(C3)O4)c3ncccc3c2[nH]c1=O` [Compound C128, 3-Amino-4-(7-fluoro-1H-indazol-4-yl)-6-(6-oxa-3-azabicyclo[3.1.1]heptan-3-yl)-1H-1,7-phenanthrolin-2-one] was run?
A: 5.8 nM

Q: For `Nc1c(-c2ccc(F)c3[nH]ncc23)c2cc(N3C4COCC3C4)c3ncccc3c2[nH]c1=O` [Compound C129, 3-Amino-4-(7-fluoro-1H-indazol-4-yl)-6-(3-oxa-6-azabicyclo[3.1.1]heptan-6-yl)-1H-1,7-one], which IC50 is on record?
A: 3.3 nM

Q: With `Nc1c(-c2ccc(F)c3[nH]ncc23)c2cc(NS(=O)(=O)C3CC3)c3ncccc3c2[nH]c1=O` [Compound C130, N-[3-amino-4-(7-fluoro-1H-indazol-4-yl)-2-oxo-1H-1,7-phenanthrolin-6-yl]cyclopropanesulfonamide] as the molecule, how does the IC50 read?
A: 3.7 nM

Q: For `Nc1c(-c2ccc(F)c3[nH]ncc23)c2cc(N3CCC(C(F)(F)F)CC3)c3ncccc3c2[nH]c1=O` [Compound C131, 3-Amino-4-(7-fluoro-1H-indazol-4-yl)-6-[4-(trifluoromethyl)piperidin-1-yl]-1H-1,7-phenanthrolin-2-one], which IC50 is on record?
A: 33 nM

Q: `Nc1c(-c2ccc(F)c3[nH]ncc23)c2cc(C3CNC3)c3ncccc3c2[nH]c1=O` [Compound C132, 3-Amino-6-(azetidin-3-yl)-4-(7-fluoro-1H-indazol-4-yl)-1H-1,7-phenanthrolin-2-one; formate] was tested. Which IC50 did it give?
A: 11 nM

Q: Which IC50 does the source give for `Nc1c(-c2ccc(F)c3[nH]ncc23)c2cc(C3CCNCC3)c3ncccc3c2[nH]c1=O` [Compound C133, 3-Amino-4-(7-fluoro-1H-indazol-4-yl)-6-piperidin-4-yl-1H-1,7-phenanthrolin-2-one; hydrochloride] here?
A: 1.7 nM

Q: With `CC1(c2cc3c(-c4ccc(F)c5[nH]ncc45)c(N)c(=O)[nH]c3c3cccnc23)CC1` [Compound C142, 3-Amino-4-(7-fluoro-1H-indazol-4-yl)-6-(1-methylcyclopropyl)-1H-1,7-phenanthrolin-2-one] as the molecule, how does the IC50 read?
A: 18 nM

Q: How did the IC50 turn out when `Nc1c(-c2ccc(F)c3[nH]ncc23)c2cc(C3CC3(F)F)c3ncccc3c2[nH]c1=O` (stereo not shown) [Compound C145, 3-Amino-6-(2,2-difluorocyclopropyl)-4-(7-fluoro-1H-indazol-4-yl)-1H-1,7-phenanthrolin-2-one] was run?
A: 3.1 nM

Q: With `Nc1c(-c2ccc(Cl)c3[nH]ncc23)c2cc(C3CCC3)c3ncccc3c2[nH]c1=O` [Compound C147, 3-Amino-4-(7-chloro-1H-indazol-4-yl)-6-cyclobutyl-1H-1,7-phenanthrolin-2-one] as the molecule, how does the IC50 read?
A: 5.2 nM

Q: With `N#Cc1cc2c(-c3ccc(Cl)c4[nH]ncc34)c(N)c(=O)[nH]c2c2cccnc12` [Compound C148, 3-Amino-4-(7-chloro-1H-indazol-4-yl)-2-oxo-1H-1,7-phenanthroline-6-carbonitrile] as the molecule, how does the IC50 read?
A: 4.1 nM

Q: For `N#Cc1cc2c(-c3ccc(C#N)c4[nH]ncc34)c(N)c(=O)[nH]c2c2cccnc12` [Compound C149, 3-Amino-4-(7-cyano-1H-indazol-4-yl)-2-oxo-1H-1,7-phenanthroline-6-carbonitrile], which IC50 is on record?
A: 380 nM

Q: With `CCc1cc2c(-c3ccc(Cl)c4[nH]ncc34)c(N)c(=O)[nH]c2c2cccnc12` [Compound C150, 3-Amino-4-(7-chloro-1H-indazol-4-yl)-6-ethyl-1H-1,7-phenanthrolin-2-one] as the molecule, how does the IC50 read?
A: 1.9 nM

Q: Which IC50 does the source give for `Nc1c(-c2ccc(Cl)c3[nH]ncc23)c2cc(C3CCCC3)c3ncccc3c2[nH]c1=O` [Compound C151, 3-Amino-4-(7-chloro-1H-indazol-4-yl)-6-cyclopentyl-1H-1,7-phenanthrolin-2-one] here?
A: 10 nM

Q: Which IC50 does the source give for `Cc1cc2c(-c3ccc(Cl)c4[nH]ncc34)c(N)c(=O)[nH]c2c2cccnc12` [Compound C152, 3-Amino-4-(7-chloro-1H-indazol-4-yl)-6-methyl-1H-1,7-phenanthrolin-2-one] here?
A: 4 nM

Q: For `Cc1cc2c(-c3ccc(C)c4[nH]ncc34)c(N)c(=O)[nH]c2c2cccnc12` [Compound C153, 3-Amino-6-methyl-4-(7-methyl-1H-indazol-4-yl)-1H-1,7-phenanthrolin-2-one], which IC50 is on record?
A: 4.4 nM

Q: For `Nc1c(-c2c(F)ccc3[nH]ncc23)c2cc(Br)c3ncccc3c2[nH]c1=O` [Compound C154, 3-Amino-6-bromo-4-(5-fluoro-1H-indazol-4-yl)-1H-1,7-phenanthrolin-2-one], which IC50 is on record?
A: 3.3 nM

Q: How did the IC50 turn out when `Nc1c(-c2ccc(F)c3[nH]ncc23)c2cc(C3CCOC3)c3ncccc3c2[nH]c1=O` (stereo not shown) [Compound C159, 3-Amino-4-(7-fluoro-1H-indazol-4-yl)-6-(oxolan-3-yl)-1H-1,7-phenanthrolin-2-one] was run?
A: 2.3 nM

Q: With `Nc1c(-c2ccc(F)c3[nH]ncc23)c2cc(CCCF)c3ncccc3c2[nH]c1=O` [Compound C160, 3-Amino-4-(7-fluoro-1H-indazol-4-yl)-6-(3-fluoropropyl)-1H-1,7-phenanthrolin-2-one] as the molecule, how does the IC50 read?
A: 2.5 nM

Q: How did the IC50 turn out when `Nc1c(-c2ccc(F)c3[nH]ncc23)c2cc(CCC(F)(F)F)c3ncccc3c2[nH]c1=O` [Compound C161, 3-Amino-4-(7-fluoro-1H-indazol-4-yl)-6-(3,3,3-trifluoropropyl)-1H-1,7-phenanthrolin-2-one] was run?
A: 8.6 nM

Q: For `Nc1c(-c2ccc(F)c3[nH]ncc23)c2cc(C3CCC(F)(F)C3)c3ncccc3c2[nH]c1=O` (stereo not shown) [Compound C162, 3-Amino-6-(3,3-difluorocyclopentyl)-4-(7-fluoro-1H-indazol-4-yl)-1H-1,7-phenanthrolin-2-one], which IC50 is on record?
A: 12 nM

Q: With `Nc1c(-c2ccc(F)c3[nH]ncc23)c2cc(C3CCC(F)(F)CC3)c3ncccc3c2[nH]c1=O` [Compound C163, 3-Amino-6-(4,4-difluorocyclohexyl)-4-(7-fluoro-1H-indazol-4-yl)-1H-1,7-phenanthrolin-2-one] as the molecule, how does the IC50 read?
A: 24 nM

Q: `Nc1c(-c2ccc(F)c3[nH]ncc23)c2cc(C3CC(F)(F)C3)c3ncccc3c2[nH]c1=O` [Compound C164, 3-Amino-6-(3,3-difluorocyclobutyl)-4-(7-fluoro-1H-indazol-4-yl)-1H-1,7-phenanthrolin-2-one] was tested. Which IC50 did it give?
A: 8.6 nM

Q: `Nc1c(-c2ccc(F)c3[nH]ncc23)c2cc(CC(F)(F)F)c3ncccc3c2[nH]c1=O` [Compound C165, 3-Amino-4-(7-fluoro-1H-indazol-4-yl)-6-(2,2,2-trifluoroethyl)-1H-1,7-phenanthrolin-2-one] was tested. Which IC50 did it give?
A: 7.1 nM

Q: How did the IC50 turn out when `Nc1c(-c2ccc(F)c3[nH]ncc23)c2cc(C3CC4(C3)CC(F)(F)C4)c3ncccc3c2[nH]c1=O` [Compound C166, 3-Amino-6-(2,2-difluorospiro[3,3]heptan-6-yl)-4-(7-fluoro-1H-indazol-4-yl)-1H-1,7-phenanthrolin-2-one] was run?
A: 2.9 nM

Q: How did the IC50 turn out when `CC1(C)CC(c2cc3c(-c4ccc(F)c5[nH]ncc45)c(N)c(=O)[nH]c3c3cccnc23)C1` [Compound C167, 3-Amino-6-(3,3-dimethylcyclobutyl)-4-(7-fluoro-1H-indazol-4-yl)-1H-1,7-phenanthrolin-2-one] was run?
A: 46 nM

Q: For `CC(c1cc2c(-c3ccc(F)c4[nH]ncc34)c(N)c(=O)[nH]c2c2cccnc12)C(F)(F)F` (stereo not shown) [Compound C168, 3-Amino-4-(7-fluoro-1H-indazol-4-yl)-6-(1,1,1-trifluoropropan-2-yl)-1H-1,7-phenanthrolin-2-one], which IC50 is on record?
A: 54 nM

Q: With `Nc1c(-c2ccc(F)c3[nH]ncc23)c2cc(C3CC4(CCC4)C3)c3ncccc3c2[nH]c1=O` [Compound C169, 3-Amino-4-(7-fluoro-1H-indazol-4-yl)-6-spiro[3,3]heptan-2-yl-1H-1,7-phenanthrolin-2-one] as the molecule, how does the IC50 read?
A: 86 nM

Q: How did the IC50 turn out when `Nc1c(-c2ccc(F)c3[nH]ncc23)c2cc(CC(F)F)c3ncccc3c2[nH]c1=O` [Compound C170, 3-Amino-6-(2,2-difluoroethyl)-4-(7-fluoro-1H-indazol-4-yl)-1H-1,7-phenanthrolin-2-one] was run?
A: 3.3 nM
